The record followed here is patent US20240317686A1, “RORyT MODULATOR, AND PREPARATION METHOD THEREFOR AND APPLICATION THEREOF” (SHANGHAI PHARMACEUTICALS HOLDING CO., LTD., priority 2020, published 2024).

The target of this test is T1, RORγt (Homo sapiens, UniProt P51449).
T1 construct: Prepare 4×RORgt-LBD in 1× buffer
T1 sequence (P51449 269-508 limits assumed): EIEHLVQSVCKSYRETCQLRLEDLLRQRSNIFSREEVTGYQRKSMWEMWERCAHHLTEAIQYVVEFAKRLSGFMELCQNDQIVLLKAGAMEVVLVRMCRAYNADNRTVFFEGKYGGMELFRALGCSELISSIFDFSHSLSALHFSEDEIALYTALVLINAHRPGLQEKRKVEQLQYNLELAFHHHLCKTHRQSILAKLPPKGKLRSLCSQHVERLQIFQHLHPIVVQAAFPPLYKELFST
Put plainly: Fluorescence resonance energy transfer (FRET) assay of inhibitory activity on RORγt. It is filed as biochemical. Conditions: RORgt-LBD GST with SRC peptide. On the procedure:
Fluorescence resonance energy transfer (FRET) experiment was performed to assay the inhibitory activity of the compound of the present invention on RORγt.
1) Preparation of DMSO stock solutions of the compounds: All compounds were dissolved in DMSO to prepare 10 mM stock solutions.
2) Compound storage: After the compound was dissolved in DMSO, the solution can be stored in a desiccator at room temperature for three months. For long-term storage, the solution should be put in a −20° C. refrigerator.
3) Preparation of working solution: • a) Positive control compound AZD0284: Starting from 500 µM, the solution was diluted serially by 3-folds with DMSO to obtain a 10-concentration gradient, each concentration with 3 replicate wells. 2 wells were pipetted. The gradiently diluted compound was diluted in a reaction buffer to obtain a 4× working solution (starting from 40 μM, diluted gradiently by 3-folds) of the positive control compound. • b) Compounds to be tested: Starting from 500 μM, the solution was diluted serially by 3-folds with DMSO to obtain a 10-concentration gradient, each concentration with 3 replicate wells. 2 wells were pipetted. The gradiently diluted compound was diluted in a reaction buffer to obtain a 4× working solution ([…], diluted gradiently by 3-folds) of the compounds to be tested. • c) Prepare a 4× negative control (8% DMSO). • d) Centrifuge the plate at 1000 rpm for 1 min.
1) Prepare 4× serially diluted compounds in 1× buffer.
2) Add 5 μl of the 4× serially diluted compound (prepared in step 1) to a 384 assay plate (784075, Greiner).
3) Prepare 4×RORgt-LBD in 1× buffer.
4) Add 5 μl of the 4×RORgt-LBD (prepared in step 3) to the 384 assay plate (prepared in step 2).
5) Incubate the assay plate for 15 min at room temperature, protected from light.
6) Prepare a 2× mixture of SRC, anti-GST Eu and streptavidin-d2 in 1× […].
7) Add 10 μl of the 2× mixture (prepared in step 6) to the 384 assay plate (prepared in step 4).
8) Centrifuge the 384 assay plates at 1000 g for 1 min.
9) Incubate for 3 h at room temperature, protected from light.
10) Read the plate at wavelengths of 665 nm and 615 nm on an Envision 2104 plate reader.
Relative ratio (RR): Calculate the relative ratio (response value at 665 nm/response value at 615 nm-response value in blank background) of each well.
Inhibition rate %=[1−(fluorescence detection value of the compound−fluorescence detection average of the positive compound)/(fluorescence detection average of the negative control−fluorescence detection average of the positive compound)]×100
Calculate the IC50 and dose-response curve of the compound: The IC50 and dose-response curve of the compound were obtained via Graphpad 8.0 by calculating the inhibition rate of the compound and the log value of the compound concentration.

SMILES strings stand for the structures.

In turn, `CNS(=O)(=O)c1ccc(CC(=O)Nc2ccc(C(=O)C3(c4ccc(F)cc4)CC(F)(F)C3)nc2)cc1` [Compound I-75, N-(6-(3,3-difluoro-1-(4-fluorophenyl)cyclobutane-1-carbonyl)pyridin-3-yl)-2-(4-(N-methylsulfamoyl)phenyl)acetamide] yielded a concentration for half-maximal inhibition (IC50) of 1 to 10 nM.

As to `CCS(=O)(=O)c1ccc(CC(=O)Nc2ccc(C(=O)C(C)(C)c3cccc(C(F)(F)F)n3)nc2)cc1` [Compound I-76], the IC50 lay within 1 to 10 nM.
